Reference: US9504674B2, “TrkB agonists and methods of use” (EMORY UNIVERSITY, priority 2010, dated 2016)

molecular target: T1, TrkB F616A (Mus musculus, UniProt P15209, F616A); experiment: Forced swim test in TrkB F616A knockin mice with or without 1NMPP1; format: in vivo; settings: TrkB F616A knockin mice, control groups without TrkB agonist
T1 construct: from tissue; host or cells: TrkB F616A knock-in mice (brain; whole animal in the forced swim test)
Experimental: Male TrkB knockin mice were given the regular drinking water or 1NMPP1 (25 μM) containing drinking water one day before we started to inject the drugs and sustained throughout the whole experiment. The indicated control (saline) and drugs were administrated for 5 days. […] None of the drugs produced a significant change in 1NMPP1 treated TrkB KI mice (n=6 to 7 mice) as compared to control.
TrkB F616A knockin mice were used to assess whether the behavior responses by 7,8-DHF and its derivative is mediated by TrkB receptor. Transgenic mice were subjected to saline or 1NMPP1 pretreatment, respectively.

T1 sequence (P15209 32-821 F616A): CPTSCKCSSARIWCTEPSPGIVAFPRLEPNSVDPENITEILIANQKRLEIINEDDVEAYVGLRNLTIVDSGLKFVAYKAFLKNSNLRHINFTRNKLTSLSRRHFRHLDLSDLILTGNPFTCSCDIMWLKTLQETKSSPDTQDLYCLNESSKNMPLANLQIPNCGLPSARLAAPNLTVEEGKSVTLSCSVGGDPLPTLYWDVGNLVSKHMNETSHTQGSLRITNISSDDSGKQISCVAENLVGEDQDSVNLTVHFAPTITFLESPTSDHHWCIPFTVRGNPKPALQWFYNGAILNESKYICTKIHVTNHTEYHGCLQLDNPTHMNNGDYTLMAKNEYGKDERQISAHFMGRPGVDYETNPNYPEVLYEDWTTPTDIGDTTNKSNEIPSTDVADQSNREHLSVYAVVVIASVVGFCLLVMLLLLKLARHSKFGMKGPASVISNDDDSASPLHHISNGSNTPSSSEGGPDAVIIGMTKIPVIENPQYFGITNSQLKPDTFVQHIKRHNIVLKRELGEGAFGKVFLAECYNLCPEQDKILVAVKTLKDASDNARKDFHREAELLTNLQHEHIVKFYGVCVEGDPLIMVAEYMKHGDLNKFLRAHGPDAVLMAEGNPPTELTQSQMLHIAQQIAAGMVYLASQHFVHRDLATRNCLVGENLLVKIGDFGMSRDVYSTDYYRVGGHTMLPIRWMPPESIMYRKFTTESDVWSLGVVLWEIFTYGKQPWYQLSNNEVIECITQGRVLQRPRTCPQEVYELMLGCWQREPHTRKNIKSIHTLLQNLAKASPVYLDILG

Row | immobility time, 1NMPP1 treated versus saline control group | Molecule
1 | No significant difference | CC(C)(C)n1nc(Cc2cccc3ccccc23)c2c(N)ncnc21 [1NMPP1]

molecular target: T2, TrkB (Rattus norvegicus, UniProt Q63604); experiment: TrkB phosphorylation in primary rat cortical neurons (immunoblotting); format: cell-based; settings: 500 nM compound, 20 min, primary rat cortical neurons, immunoblotting
T2 construct: endogenous in cells; host or cells: primary rat cortical neurons (E17 embryos, 13 DIV)
Experimental: (§1) Primary rat cortical neurons from E17 embryos (13 DIV) were treated with 500 nM various chemicals for 15 min. The neuronal cell lysates were collected and resolved on 10% SDS-PAGE. Immunoblotting was conducted with various antibodies. p-TrkB Y817 antibody was employed at 1:20000-40000 dilution.
as §1, with “days in vitro (DIV))” for “DIV)”, “1:20,000-40,000 dilution (top panel). Equal amount of TrkB was loaded in all of the samples (middle panel). P-Akt 473 ELISA analysis with the neuronal lysates (bottom panel).” for “1:20000-40000 dilution.”
7,8-dihydroxyflavone (7,8-DHF) is a small molecular TrkB agonist. Preliminary structure-activity relationship study (SAR) supports that 7,8-catechol moiety is essential for the agonistic effect by 7,8-DHF. To explore the structure-activity relationship (SAR) in depth, the TrkB stimulatory activity was examined by numerous flavonoid derivatives. The numeric positions and each ring's nomenclature are designated (FIG. 1A). Compounds were dissolved in DMSO, then diluted into […] with 1× PBS (final vehicle contains 10% DMSO/PBS) (FIG. 1B). Primary rat cortical neurons were treated with 500 nM compounds for 20 min. The cell lysates were analyzed by immunoblotting. […] Downstream activation of the TrkB target Akt was tightly correlated with TrkB activation patterns by these derivatives (FIG. 1C, bottom panel). As observed, the hydroxy groups on B ring can regulate 7,8-DHF's stimulatory activity on TrkB receptor. As 2′-hydroxy, especially 3′-hydroxy group, elevates the agonistic effect, whereas 4′-hydroxy group diminishes its stimulatory effect.
To compare the TrkB activation by these synthetic compounds, primary cortical cultures were prepared. Cortical neurons were treated with 500 nM of various compounds for 20 min and cell lysates were collected. […] Replacing the H-bond acceptor O atom with hydrogen bond donor NH abolishes its stimulatory effect. […] On the other hand, 7,8-DHF provoked TrkB activation with the minimal concentration of 100 nM (FIG. 2B, right panels). To further study 4′-DMA-7,8-DHF's kinetics on TrkB activation, primary neurons were treated for various time points. 4′-DMA-7,8-DHF swiftly activated TrkB as soon as 5 minutes following treatment. […] To compare the stimulatory effect on TrkB receptor in mouse brains, 1 mg/kg of the synthesized derivatives were injected into C57BL/6J mice. TrkB activation was monitored at different time points.
Additional compounds are listed as designated from a to m (FIG. 6A). The compounds were dissolved in DMSO, then diluted into 500 μM with 1× PBS (final vehicle contains 10% DMSO/PBS). The primary rat cortical neurons (13 DIV) were treated with 500 nM compounds for 20 min. The cell lysates were analyzed by immunoblotting. […] Moreover, p-Akt ELISA was monitored to quantitatively analyze the agonistic activities of these compounds.

T2 sequence (Q63604 32-821): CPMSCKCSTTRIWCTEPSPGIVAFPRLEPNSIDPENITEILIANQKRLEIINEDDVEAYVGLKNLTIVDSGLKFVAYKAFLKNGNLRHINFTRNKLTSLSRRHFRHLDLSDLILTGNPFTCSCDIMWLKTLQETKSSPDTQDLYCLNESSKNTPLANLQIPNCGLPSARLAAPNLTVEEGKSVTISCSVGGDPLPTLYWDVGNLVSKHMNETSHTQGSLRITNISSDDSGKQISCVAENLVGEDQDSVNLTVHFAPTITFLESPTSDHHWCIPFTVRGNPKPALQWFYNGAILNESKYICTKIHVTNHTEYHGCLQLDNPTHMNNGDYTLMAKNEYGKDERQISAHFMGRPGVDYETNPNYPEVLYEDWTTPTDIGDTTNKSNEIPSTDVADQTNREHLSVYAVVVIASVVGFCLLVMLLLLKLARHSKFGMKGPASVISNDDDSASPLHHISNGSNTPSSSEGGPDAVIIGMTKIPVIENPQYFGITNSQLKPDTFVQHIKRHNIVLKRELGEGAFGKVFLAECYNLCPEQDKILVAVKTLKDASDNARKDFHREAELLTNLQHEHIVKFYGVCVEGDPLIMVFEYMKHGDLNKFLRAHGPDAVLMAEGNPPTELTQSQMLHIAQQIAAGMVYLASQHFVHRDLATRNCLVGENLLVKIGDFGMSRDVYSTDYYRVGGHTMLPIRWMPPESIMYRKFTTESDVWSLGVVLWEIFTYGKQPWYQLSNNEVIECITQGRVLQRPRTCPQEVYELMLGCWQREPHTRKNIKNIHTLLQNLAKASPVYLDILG

Row | Molecule | TrkB activation (phosphorylation) compared to vehicle control
2 | O=c1cc(-c2cncnc2)oc2c(O)c(O)ccc12 [#4, 7,8-dihydroxy-2(pyrimidin-5-yl)-4H-chromen-4-one] | strongly activated TrkB
3 | O=c1cc(-c2ccc(O)cc2)oc2c(O)c(O)ccc12 [7,8,4′-trihydroxyflavone, reference compound] | barely activated TrkB
4 | O=c1cc(-c2ccccc2O)oc2c(O)c(O)ccc12 [7,8,2′-trihydroxyflavone] | stimulated TrkB activation
5 | O=c1cc(-c2cccc(O)c2)oc2c(O)c(O)ccc12 [7,8,3′-trihydroxyflavone] | even more robust stimulatory effect on TrkB phosphorylation than the lead
6 | O=c1cc(-c2ccc(F)cc2)[nH]c2c(O)c(O)ccc12 [#2, 2-(4-fluorophenyl)-7,8-dihydroxyquinolin-4(1H)-one] | failed to provoke TrkB activation
7 | O=c1c(O)c(-c2ccc(O)c(O)c2)oc2c(O)c(O)cc(O)c12 [3,5,7,8,3′,4′-hexahydroxylatedflavone, reference compound] | completely blocked TrkB phosphorylation
8 | COc1ccc(-c2cc(=O)c3ccc(O)cc3o2)cc1 [7-hydroxy-4′methoxyflavone, reference compound] | barely activated TrkB
9 | O=c1cc(-c2cccc(O)c2)oc2cc(O)ccc12 [7,3′-dihydroxyflavone] | even more robust stimulatory effect on TrkB phosphorylation than the lead

Continued, values first:

Row | TrkB activation (phosphorylation) compared to vehicle control | Molecule
10 | stimulated TrkB activation | O=c1c(O)c(-c2ccccc2)oc2cc(O)ccc12 [3,7-dihydroxyflavone]
11 | barely activated TrkB | COc1ccc2c(=O)cc(-c3ccccc3)oc2c1O [8-hydroxy-7-methoxyflavone, reference compound]
12 | stimulated TrkB activation | O=c1cc(-c2ccccc2)oc2c(O)c(O)cc(O)c12 [5,7,8-trihydroxyflavone]
13 | stimulated TrkB activation | O=c1c(O)c(-c2ccccc2O)oc2c(O)c(O)ccc12 [3,7,8,2′-tetrahydroxyflavone]
14 | failed to provoke TrkB activation | O=c1cc(-c2ccccc2)[nH]c2c(O)c(O)ccc12 [#3, 7,8-dihydroxy-2-phenylquinolin-4(1H)-one]

same assay, conditions: BDNF 100 ng/ml, primary rat cortical neurons

Row | TrkB activation (phosphorylation) | Molecule
15 | strongly activated TrkB | BDNF: brain-derived neurotrophic factor, from Roche (protein, UniProt P23560 19-247, looked up) Neurotrophic factor BDNF …: APMKEANIRGQGGLAYPGVRTHGTLESVNGPKAGSRGLTSLADTFEHVIEELLDEDQKVRPNEENNKDADLYTSRVMLSSQVPLEPPLLFLLEEYKNYLDAANMSMRVRRHSDPARRGELSVCDSISEWVTAADKKTAVDMSGGTVTVLEKVPVSKGQLKQYFYETKCNPMGYTKEGCRGIDKRHWNSQCRTTQSYVRALTMDSKKRIGWRFIRIDTSCVCTLTIKRGR
